According to patent publication US8592405B2, “Synergistic antimicrobial composition” (Dow Global Technologies LLC, priority 2009, dated 2013):

Key:
Type in all cases: cell-based
Gleocapsa sp. (Gs) = assay: Algal efficacy testing, modified ASTM 5589 (12-well, dry paint film); conditions: three weeks; for % inhibition: at the Total conc; for Total conc, ppm: total biocide in paint taken as minimum inhibitory concentration
Experimental: Samples of white acrylic latex paint free of biocides were prepared in 50 ml aliquots. Each biocide was post added to give the necessary active ingredient concentration in the paint. The total biocides concentrations tested were 750, 1500, 2500 and 5000 ppm. After biocides addition, each sample was hand mixed for a minimum of 30 sec, followed by a 3 min run on the paint shaker (RED DEVIL). Each of the paint samples as well as a control sample (containing no biocide) were used to prepare films on black plastic-vinyl chloride/acetate copolymer panels (LENETA, Mahwah, N.J.) using a 3 mil bird bar applicator. The panels were thoroughly dried for 5 days avoiding direct exposure to sunlight. Square discs (15 mm^2) were cut out from each panel and were used as the substrate for fungal and algal efficacy tests. This sample size allowed for an agar border when the sample disc was placed into the well of the test plate.
(§1) The appropriate media (BOLD'S 3N for Chlorophytes, BG-11 for Cyanobacteria, and PDA for fungi) were used to support microbial growth. The test plates were maintained at room temp (25° C.-26° C.), in a cycled light-dark environment, for 3 weeks for algae. Plates for fungal challenge tests were maintained at 30C for three weeks. At the end of incubation period the samples were scored for percent area covered by visible microbial growth.
ASTM 5589 is a standard accelerated test method for determining resistance of various coatings (including paints) to algal defacement. To accommodate for high-throughput screening, this method was scaled down from petri plates to 12-well plates. A single coupon was placed with a pair of sterile forceps at the center of the agar plug (on top) with the painted surface facing upwards. Each well was inoculated with 150 μl of organism (1×10^8 cfu/ml) making sure that the whole surface (paint film as well as the agar surrounding it) was evenly covered. The plates were incubated at room temp (25° C.-26° C.) with cyclic exposure to light (OTT-Lite model #OTL4012P, 40 Watt, 26 KLumen) and dark phases, for a period of three weeks. The total area covered was evaluated at the end of each week according to percent area covered in 5% increments. While rating the plates, notations were made for zones of inhibition.
(§2) The SI is calculated based on F. C. Kull et.

[1] = system: An + Pf (Aspergillus niger + Penicillium funiculosum); assay: Fungal efficacy testing, modified ASTM 5590 (6-well, mixed inoculum, Example 4); conditions: four weeks; for Total conc, ppm: An + Pf mixed inoculum, NE = no end point at the concentration tested; for % inhibition: An + Pf, at the Total conc
Experimental: as §2
(§3) A single or blend of biocides was post added into white acrylic latex paint free of biocides to give a maximum total active ingredient/s concentration tested. This paint was then diluted with a biocide free acrylic latex paint at concentrations range of 75 to 12.5% w/w to give desired concentrations for the testing. Depending on the type of biocide blends tested, the total biocides concentrations varies from 200 to 5000 ppm. After biocides addition or dilution each sample was hand mixed for at least a minute until uniformity is achieved. Each of the paint samples as well as a control sample (containing no biocide) were used to prepare films on black plastic-vinyl chloride/acetate copolymer panels (LENETA, Mahwah, N.J.) using a 3 mil bird bar applicator. The panels were thoroughly dried for at least 2 days avoiding direct exposure to sunlight. Square discs (0.5 inch^2, 13 mm^2) were cut out from each panel and were used as the substrate for fungal and algal efficacy tests. This sample size allowed for an agar border when the sample disc was placed into the well of the test plate. Each sample was tested in duplicate
as §1, with “for four” for “for 3”, “at 30 C” for “at 30C”, “for four” for “for three”, “of the” for “of”
(§4) ASTM 5590 is a standard accelerated test method for determining resistance of various coatings (including paints) to fungal defacement. To accommodate for high-throughput screening, this method was scaled down from petri plates to 6-well plates. To set up the test, an agar plug was placed at the bottom of each well of the sterile 6-well plate. A single coupon was placed with a pair of sterile forceps at the center of the agar plug (on top) with the painted surface facing upwards. Fungal inoculums were prepared by mixing equal concentrations (1×10^6 cfu/ml) and equal volumes (depending on number of samples to be tested) of like growing organisms. Cladosporium herbarum was mixed with Aureobasidium pullulans. Aspergillus niger was mixed with Penicillium funiculosum. Alternaria alternata was mixed with Trichoderma viride. Each well was inoculated with 400 μl of organism mixture (1×10^6 cfu/ml) making sure that the whole surface (paint film as well as the agar surrounding it) was evenly covered. The plates were incubated at 30° C. in presence of moisture, for a period of four weeks. The total percent area covered was evaluated and recorded at the end of each week after the 2nd week and recorded in increments of 5%.

[2] = system: Ch + Tv (Cladosporium herbarum + Trichoderma viride); assay: as above; conditions: four weeks
Experimental: [The source words this procedure for another target and reports this target under the same test.] as §2, §3
as §1, with “for four” for “for 3”, “at 30 C” for “at 30C”, “for four” for “for three”, “of the” for “of”
as §4

Row | SMILES | % inhibition (Gleocapsa sp. (Gs)) | Total conc, ppm (Gleocapsa sp. (Gs)) | Total conc, ppm [1] | % inhibition [1] | Total conc, ppm ([2]; Ch + Tv mixed inoculum, NE = no end point at the concentration tested) | % inhibition ([2]; Ch + Tv, at the Total conc)
1 | CCCCCCCCn1sc(Cl)c(Cl)c1=O [DCOIT, 4,5-dichloro-2-n-octyl-4-isothiazolin-3-one] | 77.5% | 2500 ppm | – | – | – | –
2 | Cc1ccc(S(=O)(=O)C(I)I)cc1 [DIMTS, diiodomethyl-p-tolylsulfone] | 80% | 2500 ppm | 1250 ppm | 100% | – | –
3 | CN(C)C(=O)Nc1cccc(C(F)(F)F)c1 [Fluometuron, 1,1-dimethyl-3-(α,α,α-trifluoro-m-tolyl)urea] | – | – | 5000 ppm | 0% | 5000 ppm | 0%
